From ChEMBL document CHEMBL4251622, “Design, synthesis, and biological evaluation of polo-like kinase 1/eukaryotic elongation factor 2 kinase (PLK1/EEF2K) dual inhibitors for regulating breast cancer cells apoptosis and autophagy” (Eur J Med Chem, 2018)
Calls of active or inactive are those of the source. No cut-off for these calls is given here.

Experiments:
[1] = target: Serine/threonine-protein kinase PLK1 (Homo sapiens, UniProt P53350); experiment: Inhibition of full length human PLK1 at 20 uM using casein as substrate after 40 mins in presence of [gamma-33P]-ATP by radiometric assay relative to control
Chain of Serine/threonine-protein kinase PLK1 (P53350 whole entry): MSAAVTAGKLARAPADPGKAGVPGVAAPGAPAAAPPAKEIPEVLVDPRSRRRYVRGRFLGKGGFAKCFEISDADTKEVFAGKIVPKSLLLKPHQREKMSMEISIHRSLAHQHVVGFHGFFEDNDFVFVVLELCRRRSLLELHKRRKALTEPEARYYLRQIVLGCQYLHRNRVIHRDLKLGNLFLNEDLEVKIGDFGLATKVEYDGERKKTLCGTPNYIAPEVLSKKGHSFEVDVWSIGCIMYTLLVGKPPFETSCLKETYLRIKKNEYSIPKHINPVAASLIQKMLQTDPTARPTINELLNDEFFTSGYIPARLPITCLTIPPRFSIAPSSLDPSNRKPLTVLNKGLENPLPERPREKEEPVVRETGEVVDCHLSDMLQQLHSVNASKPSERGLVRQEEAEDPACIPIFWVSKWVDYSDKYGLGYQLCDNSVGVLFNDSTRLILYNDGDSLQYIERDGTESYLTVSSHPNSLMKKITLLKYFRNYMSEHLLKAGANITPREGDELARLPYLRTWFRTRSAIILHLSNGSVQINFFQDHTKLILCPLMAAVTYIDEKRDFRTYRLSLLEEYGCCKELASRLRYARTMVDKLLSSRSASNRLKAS

BT-483 = experiment: Induction of autophagy in human BT-483 cells assessed as activation of LC3 at 5 to 10 uM by Western blot analysis; type: functional, cell-based
[2] = target: RAC-alpha serine/threonine-protein kinase (Homo sapiens) (UniProt P31749); experiment: Inhibition of wild-type human partial length AKT1 expressed in bacterial expression system assessed as residual activity at 1 uM by Kinomescan method relative to control
Chain of RAC-alpha serine/threonine-protein kinase (Homo sapiens) (P31749 whole entry, the tested form may be a part): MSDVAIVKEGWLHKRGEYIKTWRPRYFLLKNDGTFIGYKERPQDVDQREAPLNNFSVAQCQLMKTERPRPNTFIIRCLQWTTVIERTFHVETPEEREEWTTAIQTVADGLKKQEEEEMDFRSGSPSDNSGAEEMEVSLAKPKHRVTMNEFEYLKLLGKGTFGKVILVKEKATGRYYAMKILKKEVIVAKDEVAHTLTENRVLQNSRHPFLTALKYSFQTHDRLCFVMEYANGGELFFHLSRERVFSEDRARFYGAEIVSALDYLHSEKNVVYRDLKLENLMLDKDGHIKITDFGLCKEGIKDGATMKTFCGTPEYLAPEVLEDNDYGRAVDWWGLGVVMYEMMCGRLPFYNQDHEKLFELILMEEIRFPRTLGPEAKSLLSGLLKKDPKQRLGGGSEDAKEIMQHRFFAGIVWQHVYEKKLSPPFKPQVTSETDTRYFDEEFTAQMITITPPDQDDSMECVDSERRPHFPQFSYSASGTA

[3] = target: Aurora kinase A (Homo sapiens) (UniProt O14965); experiment: Inhibition of wild-type human partial length AURKA (E122 to K401 residues) expressed in mammalian expression system assessed as residual activity at 1 uM by Kinomescan method relative to control
Chain of Aurora kinase A (Homo sapiens) (O14965 whole entry, the tested form may be a part): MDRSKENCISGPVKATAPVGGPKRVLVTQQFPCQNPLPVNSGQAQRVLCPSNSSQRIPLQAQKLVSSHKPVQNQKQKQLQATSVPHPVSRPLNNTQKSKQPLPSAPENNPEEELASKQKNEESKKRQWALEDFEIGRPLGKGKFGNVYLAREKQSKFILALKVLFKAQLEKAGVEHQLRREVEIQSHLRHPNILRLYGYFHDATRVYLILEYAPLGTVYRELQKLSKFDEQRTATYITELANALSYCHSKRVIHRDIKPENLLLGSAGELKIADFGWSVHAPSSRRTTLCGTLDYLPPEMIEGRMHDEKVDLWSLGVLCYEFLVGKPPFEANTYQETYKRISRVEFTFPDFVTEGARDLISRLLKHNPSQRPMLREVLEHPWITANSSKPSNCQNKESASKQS

[4] = target: Death-associated protein kinase 1 (Homo sapiens) (UniProt P53355); experiment: Inhibition of wild-type human partial length DAPK1 (M1 to F296 residues) expressed in bacterial expression system assessed as residual activity at 1 uM by Kinomescan method relative to control
[5] = target: Epidermal growth factor receptor (Homo sapiens) (UniProt P00533); experiment: Inhibition of wild-type human partial length EGFR (R669 to V1011 residues) expressed in bacterial expression system assessed as residual activity at 1 uM by Kinomescan method relative to control
Chain of Epidermal growth factor receptor (Homo sapiens) (P00533 whole entry, the tested form may be a part): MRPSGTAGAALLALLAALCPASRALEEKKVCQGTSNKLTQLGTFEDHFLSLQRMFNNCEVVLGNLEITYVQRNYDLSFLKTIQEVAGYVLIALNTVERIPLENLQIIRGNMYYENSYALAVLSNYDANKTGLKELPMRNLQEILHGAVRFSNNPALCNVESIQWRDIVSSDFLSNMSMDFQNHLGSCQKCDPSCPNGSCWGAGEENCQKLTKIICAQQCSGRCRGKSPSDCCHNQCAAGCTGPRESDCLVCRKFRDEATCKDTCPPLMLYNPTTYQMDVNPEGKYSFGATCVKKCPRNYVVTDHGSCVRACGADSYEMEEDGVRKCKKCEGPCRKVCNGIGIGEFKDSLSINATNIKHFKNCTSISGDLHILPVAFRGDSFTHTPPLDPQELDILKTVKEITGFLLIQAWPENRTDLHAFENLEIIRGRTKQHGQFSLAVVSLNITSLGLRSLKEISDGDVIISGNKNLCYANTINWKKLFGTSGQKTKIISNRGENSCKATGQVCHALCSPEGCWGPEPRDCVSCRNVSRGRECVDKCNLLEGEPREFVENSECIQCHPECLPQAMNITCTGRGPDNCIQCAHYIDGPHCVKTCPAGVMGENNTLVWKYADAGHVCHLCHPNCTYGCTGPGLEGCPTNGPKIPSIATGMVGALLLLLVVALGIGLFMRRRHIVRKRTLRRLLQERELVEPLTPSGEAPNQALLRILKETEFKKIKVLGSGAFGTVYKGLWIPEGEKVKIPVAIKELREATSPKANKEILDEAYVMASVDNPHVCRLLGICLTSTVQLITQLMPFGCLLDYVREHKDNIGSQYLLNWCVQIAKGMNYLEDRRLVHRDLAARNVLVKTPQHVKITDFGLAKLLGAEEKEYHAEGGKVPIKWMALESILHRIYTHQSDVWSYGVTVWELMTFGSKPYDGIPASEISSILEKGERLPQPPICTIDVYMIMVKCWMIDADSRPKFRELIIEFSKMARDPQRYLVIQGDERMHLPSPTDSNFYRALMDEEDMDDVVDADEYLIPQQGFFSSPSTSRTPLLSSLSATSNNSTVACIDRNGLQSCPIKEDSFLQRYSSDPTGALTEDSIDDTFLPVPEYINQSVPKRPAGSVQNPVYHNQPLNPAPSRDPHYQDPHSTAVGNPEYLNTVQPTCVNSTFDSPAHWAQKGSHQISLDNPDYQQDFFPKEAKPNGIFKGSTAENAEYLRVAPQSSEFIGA

[6] = target: Receptor tyrosine-protein kinase erbB-2 (Homo sapiens) (UniProt P04626); experiment: Inhibition of wild-type human partial length ERBB2 (K646 to V1225 residues) expressed in mammalian expression system assessed as residual activity at 1 uM by Kinomescan method relative to control
Chain of Receptor tyrosine-protein kinase erbB-2 (Homo sapiens) (P04626 whole entry, the tested form may be a part): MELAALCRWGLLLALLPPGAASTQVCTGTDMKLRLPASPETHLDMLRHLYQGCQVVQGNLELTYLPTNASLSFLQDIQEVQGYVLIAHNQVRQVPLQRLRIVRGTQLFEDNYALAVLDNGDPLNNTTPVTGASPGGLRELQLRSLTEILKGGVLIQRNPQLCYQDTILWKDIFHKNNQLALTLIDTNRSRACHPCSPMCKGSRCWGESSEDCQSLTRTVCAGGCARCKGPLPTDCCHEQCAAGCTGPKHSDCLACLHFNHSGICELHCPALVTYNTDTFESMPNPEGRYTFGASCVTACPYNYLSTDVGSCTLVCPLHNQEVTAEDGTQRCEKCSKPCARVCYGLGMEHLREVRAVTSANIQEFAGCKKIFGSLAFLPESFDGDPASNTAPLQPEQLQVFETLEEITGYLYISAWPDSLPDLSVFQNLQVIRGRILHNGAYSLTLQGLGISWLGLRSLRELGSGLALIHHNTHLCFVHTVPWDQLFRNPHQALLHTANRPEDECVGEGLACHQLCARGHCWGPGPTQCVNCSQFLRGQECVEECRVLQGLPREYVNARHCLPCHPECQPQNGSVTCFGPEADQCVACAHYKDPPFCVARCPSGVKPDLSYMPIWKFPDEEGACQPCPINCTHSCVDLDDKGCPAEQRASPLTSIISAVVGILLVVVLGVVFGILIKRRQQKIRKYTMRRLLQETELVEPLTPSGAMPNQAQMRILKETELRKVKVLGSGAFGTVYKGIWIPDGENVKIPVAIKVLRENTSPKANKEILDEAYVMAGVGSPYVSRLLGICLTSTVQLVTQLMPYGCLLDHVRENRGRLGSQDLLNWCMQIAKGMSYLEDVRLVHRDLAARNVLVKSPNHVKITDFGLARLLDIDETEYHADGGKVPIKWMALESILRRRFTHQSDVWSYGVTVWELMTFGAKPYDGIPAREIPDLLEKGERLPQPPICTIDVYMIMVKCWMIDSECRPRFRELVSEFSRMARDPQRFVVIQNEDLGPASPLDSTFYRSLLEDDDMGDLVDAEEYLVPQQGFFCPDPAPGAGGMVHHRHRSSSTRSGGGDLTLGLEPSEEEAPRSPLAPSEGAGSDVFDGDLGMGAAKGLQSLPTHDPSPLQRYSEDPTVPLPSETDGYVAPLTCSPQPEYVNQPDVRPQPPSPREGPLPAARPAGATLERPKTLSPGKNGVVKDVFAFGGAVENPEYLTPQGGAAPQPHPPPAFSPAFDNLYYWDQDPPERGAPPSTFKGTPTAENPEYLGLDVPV

[7] = target: Mitogen-activated protein kinase 6 (Homo sapiens) (UniProt Q16659); experiment: Inhibition of wild-type human partial length ERK3 (M1 to P413 residues) expressed in bacterial expression system assessed as residual activity at 1 uM by Kinomescan method relative to control
Chain of Mitogen-activated protein kinase 6 (Homo sapiens) (Q16659 whole entry, the tested form may be a part): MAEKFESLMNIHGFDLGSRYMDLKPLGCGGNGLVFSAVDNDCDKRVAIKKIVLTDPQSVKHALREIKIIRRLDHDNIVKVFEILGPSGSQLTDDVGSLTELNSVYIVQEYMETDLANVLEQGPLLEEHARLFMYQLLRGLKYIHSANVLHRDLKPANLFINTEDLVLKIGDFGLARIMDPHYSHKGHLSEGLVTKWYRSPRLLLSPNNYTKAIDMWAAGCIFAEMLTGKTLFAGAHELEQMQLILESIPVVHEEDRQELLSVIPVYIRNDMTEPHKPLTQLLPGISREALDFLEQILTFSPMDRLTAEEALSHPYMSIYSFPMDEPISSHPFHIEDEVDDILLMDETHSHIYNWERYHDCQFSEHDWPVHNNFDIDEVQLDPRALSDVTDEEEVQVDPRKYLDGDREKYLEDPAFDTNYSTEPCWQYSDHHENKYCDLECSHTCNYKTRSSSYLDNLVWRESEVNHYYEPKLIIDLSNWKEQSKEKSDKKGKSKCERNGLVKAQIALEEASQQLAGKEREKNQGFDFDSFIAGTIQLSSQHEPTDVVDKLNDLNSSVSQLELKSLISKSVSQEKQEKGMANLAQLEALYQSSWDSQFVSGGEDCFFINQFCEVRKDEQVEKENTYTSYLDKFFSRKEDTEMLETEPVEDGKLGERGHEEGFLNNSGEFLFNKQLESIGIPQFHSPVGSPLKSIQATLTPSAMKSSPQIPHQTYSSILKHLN

[8] = target: Insulin receptor (Homo sapiens) (UniProt P06213); experiment: Inhibition of wild-type human partial length INSR (P997 to E1318 residues) expressed in mammalian expression system assessed as residual activity at 1 uM by Kinomescan method relative to control
[9] = target: Phosphatidylinositol 4-phosphate 3-kinase C2 domain-containing subunit beta (Homo sapiens) (UniProt O00750); experiment: Inhibition of wild-type human partial length PIK3C2B (M1 to L1634 residues) expressed in mammalian expression system assessed as residual activity at 1 uM by Kinomescan method relative to control

SMILES: CCNc1cc(-c2ccc(NC(=O)Nc3cccc(Cl)c3)cc2C(F)(F)F)ccn1
- inhibition [1]: 94.9%
- Activity (BT-483): Active
- Activity [2]: 90%
- Activity [3]: 100%
- Activity [4]: 93%
- Activity [5]: 90%
- Activity [6]: 98%
- Activity [7]: 73%
- Activity [8]: 87%
- Activity [9]: 97%
